Source: US20210386738A1, “COMBINATION OF PRMT5 INHIBITORS AND BCL-2 INHIBITORS” (GLAXOSMITHKLINE INTELLECTUAL PROPERTY DEVELOPMENT LIMITED, priority 2018, published 2021)

Experiments:
Assay type in all cases: cell-based
Z-138 = assay: Standard 6-day growth-death assay, Z-138 as control for Compound A; details: single agent or fixed 1:1 combination; for EC50 / IC50: Homo sapiens, 144 h; for EC50: average of n=2, read-out: dEC50; for IC50: average of n=2, read-out: gIC50; for Ymin-T0 / gIC100: average of n=2
Procedure: (§1) The majority cell lines were obtained from GSK BioCat group, American Type Culture Collection (ATCC), or the Deutsche Sammlung von Mikroorganismen and Zellbulturen (DSMZ). All cell lines were maintained in growth medium in T75 cm^2 flasks, incubated at 37° C. with 5% CO2 and split every 3 to 4 days. Growth media conditions and cell line information are detailed in Table 1. Cells were counted using the Vi-Cell Analyzer (Beckman Coulter ViCell) to obtain viable cell counts.
(§2) Optimal cell seeding density was determined for all cell lines by monitoring proliferation over a range of seeding densities in 384-well format and identifying the seeding density at which cells grew logarithmically throughout six days. 50 uL of cells per well were plated in 384-well plates at the optimal seeding density in preferred supplemented culture media. Three plates were prepared per cell line and incubated overnight at 37° C. in 5% CO2.
(§3) In these studies, lymphoma cell lines were treated with PRMT5 inhibitor, compound A and BCL-2 targeted inhibitor, ABT-199 single agent or in combination using a fixed 1:1 ratio of each inhibitor over a 20-point titration. For compound A single and fixed 1:1 ratio combination with ABT-199 cell proliferation assay, cells were treated in duplicate with a 20-point, two-fold dilution series of Compound A, ABT-199 (≥14 μM top dose) single or combo treatment, and ≤0.15% DMSO final concentration. Plates were incubated for six days at the conditions described above. Cell growth was measured using CellTiter-Glo (Promega) and luminescence signal was detected with a BioTek Synergy Neo microplate reader. A plate of untreated cells was read at the time of compound/biologic addition to determine the T0 value representing the starting number of cells. Data were fit with a four-parameter equation to generate a concentration response curve using Assay Client software.
(§4) Results were background corrected by subtraction of values from wells containing no cells, expressed as a percentage of the T0 value (value at time=0), and plotted against compound concentration. The T0 value was normalized to 100% and represents the number of cells present at the time of compound addition. The cellular response was determined for each compound using a 4- or 6-parameter curve fit of cell viability against concentration using Assay Client software. Growth IC50 (gIC50) values correspond to the concentration intersecting the mid-point of the growth window (between DMSO and T0 values). Growth IC100 (gIC100) values correspond to the concentration at which 100% growth inhibition is achieved, based on the growth window. The Ymin−T0 value, a measure of net population cell growth or death, is calculated by subtracting the T0 value (100%) from the Ymin value (%) that is determined from the fit of the concentration response curve. Death EC50 (dEC50) values correspond to the concentration at which 50% net cell death is observed.
(§5) Individual curves were quality checked for three criteria: outlier data points, cell growth (population doubling ≥1.5), and proper curve fitting. […] Individual curves were QC checked for outlier data points, cell growth (population doubling ≥1.5), and proper curve fitting. Obvious outlier data points were omitted only as needed to ensure proper curve fit.
(§6) For fixed ratio screening, combination activity was assessed by the fold change in gIC50 compared to the 2 single agent curves by dividing the compound ratio as necessary. Combinations showing >3-fold and >5-fold change from single agent are described as below: • Fold changes ≥5 are considered to represent strong synergy. • Fold changes between 3.0 and 4.9 are considered to represent weak synergy. • Fold changes <3 are considered to represent no synergy.

lymphoma cell line DB = assay: Standard 6-day growth-death assay, DB; details: single agent or fixed 1:1 combination; for EC50 / IC50: 144 h; for EC50: average of n=2, read-out: dEC50; for IC50: average of n=2, read-out: gIC50; for Ymin-T0 / gIC100: average of n=2
Procedure: as §1, §2, §3, §4, §5, §6

[1] = system: lymphoma cell line DOHH-2; assay: Standard 6-day growth-death assay, DOHH-2; details: single agent or fixed 1:1 combination; for EC50 / IC50: Homo sapiens, 144 h; for EC50: average of n=2, read-out: dEC50; for IC50: average of n=2, read-out: gIC50; for Ymin-T0 / gIC100: average of n=2
Procedure: as §1, §2, §3, §4, §5, §6

[2] = system: lymphoma cell line WSU-DLCL2; assay: Standard 6-day growth-death assay, WSU-DLCL2; details: single agent or fixed 1:1 combination; for EC50 / IC50: Homo sapiens, WSUDLCL2, 144 h; for EC50: average of n=2, read-out: dEC50; for IC50: average of n=2, read-out: gIC50; for Ymin-T0 / gIC100: average of n=2
Procedure: as §1, §2, §3, §4, §5, §6

[3] = system: lymphoma cell line WSU-FSCCL; assay: Standard 6-day growth-death assay, WSU-FSCCL; details: single agent or fixed 1:1 combination; for EC50 / IC50: 144 h; for EC50: average of n=2, read-out: dEC50; for IC50: average of n=2, read-out: gIC50; for Ymin-T0 / gIC100: average of n=2
Procedure: as §1, §2, §3, §4, §5, §6

CC1(C)CCC(CN2CCN(c3ccc(C(=O)NS(=O)(=O)c4ccc(NCC5CCOCC5)c([N+](=O)[O-])c4)c(Oc4cnc5[nH]ccc5c4)c3)CC2)=C(c2ccc(Cl)cc2)C1 [ABT-199, venetoclax, reference compound]
EC50 (Z-138): 3120 nM | IC50 (Z-138): 14 nM | Ymin-T0 (Z-138): −78% | gIC100 (Z-138): 1119 nM | EC50 (lymphoma cell line DB): > 14700 nM | IC50 (lymphoma cell line DB): 2480 nM | Ymin-T0 (lymphoma cell line DB): 449% | gIC100 (lymphoma cell line DB): > 14.7 µM | EC50 [1]: 1820 nM | IC50 [1]: 51 nM | Ymin-T0 [1]: −69% | gIC100 [1]: 2897 nM | EC50 [2]: > 14700 nM | IC50 [2]: 6920 nM | Ymin-T0 [2]: 3182% | gIC100 [2]: > 14.7 µM | EC50 [3]: 14600 nM | IC50 [3]: 238 nM | Ymin-T0 [3]: −49% | gIC100 [3]: 10.53 µM

O=C(NC[C@H](O)CN1CCc2ccccc2C1)c1ccnc(NC2CCC2)c1 [Compound A]
EC50 (Z-138): 794 nM | IC50 (Z-138): 38 nM | Ymin-T0 (Z-138): −93.1% | gIC100 (Z-138): 453 nM | EC50 (lymphoma cell line DB): > 14700 nM | IC50 (lymphoma cell line DB): 862 nM | Ymin-T0 (lymphoma cell line DB): 194% | gIC100 (lymphoma cell line DB): > 14.7 µM | EC50 [1]: 1940 nM | IC50 [1]: 41 nM | Ymin-T0 [1]: −100% | gIC100 [1]: 1474 nM | EC50 [2]: > 14700 nM | IC50 [2]: 1160 nM | Ymin-T0 [2]: 2474% | gIC100 [2]: > 14.7 µM | EC50 [3]: > 14700 nM | IC50 [3]: 388 nM | Ymin-T0 [3]: 224% | gIC100 [3]: 14.663 µM
